From ChEMBL document CHEMBL1141777, “Norlanostane triterpenoidal saponins from the marine sponge melophlussarassinorum” (2005) come the findings set out here.

The test system of assay [1] is Bacillus subtilis. Kind of assay: Antimicrobial activity against Bacillus subtilis DSM 2109 at 10 ug after 24 hrs by agar diffusion assay. It is filed as functional. To be noted: DSM 2109, 24 h, read-out: IZ. (In general: In agar diffusion tests the substance spreads into inoculated agar from a disc or well.)
Assay [2] relates to Saccharomyces cerevisiae. As to the kind of experiment: Antimicrobial activity against Saccharomyces cerevisiae at 10 ug after 24 hrs by agar diffusion assay. It is filed as functional. The note with it: read-out: IZ.
Assay [3] deals with Saccharomyces cerevisiae. Kind of assay: Antimicrobial activity against Saccharomyces cerevisiae. It is filed as functional, organism-based.
Another assay has as its system Escherichia coli. As to the kind of experiment: Antimicrobial activity against Escherichia coli DSM 10290. It is filed as functional, organism-based.
Assay [4] concerns Bacillus subtilis. As to the kind of experiment: Antimicrobial activity against Bacillus subtilis DSM 2109. It is filed as functional, organism-based.

The structures appear in SMILES notation. Activity calls are given as the source filed them. The rule behind the calls is not given here.

Turning to `CC(=O)N[C@H]1[C@H](O[C@@H]2CO[C@@H](O[C@H]3CC[C@]4(C)C5=C(CC[C@H]4C3(C)C)[C@@H]3CC[C@H]([C@H](C)CC(=O)CC(C)(C)O)[C@@]3(C)CC5)[C@H](O[C@@H]3O[C@H](CO[C@@H]4O[C@H](CO)[C@@H](O)[C@H](O)[C@H]4O[C@@H]4O[C@H](CO)[C@@H](O)[C@H](O)[C@H]4O)[C@@H](O)[C@H](O)[C@H]3NC(C)=O)[C@H]2O)O[C@H](CO)[C@H](O)[C@@H]1O` [SARASINOSIDE J], the zone of inhibition at 10 µg/disc stood at 9 mm in the assay with Bacillus subtilis [1] and 13 mm with Saccharomyces cerevisiae [2]. For the same molecule, the result in the assay with Saccharomyces cerevisiae [3] was Active.

Take `CC(=O)N[C@H]1[C@H](O[C@@H]2CO[C@@H](O[C@H]3CC[C@]4(C)C5=C(CC[C@H]4C3(C)C)[C@@H]3CC[C@H]([C@H](C)CC(=O)C=C(C)C)[C@@]3(C)CC5)[C@H](O[C@@H]3O[C@H](CO[C@@H]4O[C@H](CO)[C@@H](O)[C@H](O)[C@H]4O[C@@H]4O[C@H](CO)[C@@H](O)[C@H](O)[C@H]4O)[C@@H](O)[C@H](O)[C@H]3NC(C)=O)[C@H]2O)O[C@H](CO)[C@H](O)[C@@H]1O` [SARASINOSIDE A1]: the outcome in the assay with Escherichia coli and in the assay on Bacillus subtilis [4] was inactive. In addition, the zone of inhibition at 10 µg/disc with Saccharomyces cerevisiae [2] turned out to be 10 mm. Further, the result in the assay on Saccharomyces cerevisiae [3] was Active.
